Measured values as given in patent US20260202298A1, “HIGH-THROUGHPUT MEASUREMENT OF P[…] PARTICLE COUNTS, DISTRIBUTIONS, AND COMPOSITION” (priority 2021, published 2026).

Key:
[1] = test system: A/PR8/34 or A/Ud/72 (with X31 or A/Aichi/68 HA) IAV; assay type: cell-based, influenza A virus in human lung epithelial cell line Calu3; settings: FIG. 12B, PR8 and XUd viruses
[2] = test system: XUd (WT1) or PR8 (WT2) influenza viruses; assay type: cell-based, influenza virus in MDCK cells; settings: at higher concentrations

Row | Compound | virion yield vs. fraction of filamentous particles produced [1] | effect on virion yield [2] | size of individual virus particles [2] | virion aggregation [2]
1 | COC(=O)OCOc1c2n(ccc1=O)N([C@@H]1c3ccccc3SCc3c1ccc(F)c3F)[C@@H]1COCCN1C2=O [baloxavir, baloxavir marboxil] | lower virion yields are associated with increased fraction of filamentous particles produced |  |  | 
2 | CCOC(=O)C1=C[C@@H](OC(CC)CC)[C@H](NC(C)=O)[C@@H](N)C1 [oseltamivir] |  | reduces virion yield | remains enriched in spherical particles | induces virion aggregation
